Experimental data from PMC6001375, “CLERK is a novel receptor kinase required for sensing of root-active CLE peptides in Arabidopsis” (Development (Cambridge, England), 2018).
Entries after “also recorded” stand apart in the source; their conditions may differ.

Legend:
Arabidopsis root growth [1] = test: Root growth response (CLE resistance/sensitivity) of wild type and mutant seedlings; type: in vivo, Arabidopsis thaliana; conditions: for Root growth response of clerk mutants: clerk mutants vs Col-0 (and bam3 for CLE45), n=13-25 (Fig. 2B), n=16-19 (Fig. 2A)
Source text: Arabidopsis thaliana Columbia-0 (Col-0) was used as the wild type for phenotypic analyses and is the background of all mutants investigated: ops-2 (SALK_139316); brx-2 ([Rodrigues et al., 2009]); bam3-2 (SALK_044433) ([DeYoung et al., 2006]); clerk-3 (SALK_066568); ops^E319K ([Rodriguez-Villalon et al., 2014]); makr5 ([Kang and Hardtke, 2016]); nik1 (SALK_017538C); nik2 (SALK_044363C); and sark (SALK_111290), clv2/rlp10-1 (GK-686A09) and crn-10 ([Hazak et al., 2017]). Seeds were surface sterilized, germinated and grown vertically under continuous light at 22°C on 0.5× Murashige and Skoog media supplemented with 1% agar and with or without 0.3% sucrose.
CLE peptides were obtained from a commercial supplier (Genscript), synthesized at >80% purity, diluted in water and used at final concentration as indicated. For root length measurements, plates were scanned at 600 dpi resolution and seedling root length was determined using the Simple Neurite Tracer plug-in ([Longair et al., 2011]) for Fiji software ([Schindelin et al., 2012]).
M2 mutagenized seeds ([Kalmbach et al., 2017]) were screened in tissue culture on media complemented with 10 nM CLE26 peptide. Seedlings with CLE26-resistant root growth were transferred to soil and the phenotype was confirmed in the M3 generation before backcrossing to Col-0 wild type. The causative mutation for CLE26 resistance was then determined by whole-genome sequencing of bulked segregants as described previously ([Kang and Hardtke, 2016]).

[2] = tested on: root meristem protophloem; test: Protophloem development / CVP2::NLS-VENUS marker in root meristem; type: in vivo, Arabidopsis thaliana; conditions: clerk mutant roots, CLE26 treatment; n=18-30 (Fig. 5D)
Source text: Fig. 5. CLERK prevents premature expression of a protophloem marker. (A) Schematic presentation of the protophloem sieve element lineage in the Arabidopsis root meristem. Red asterisk, pericycle cell file; dark-blue asterisk, protophloem sieve element cell file; light-blue asterisk, incipient metaphloem cell file; arrowheads indicate the two periclinal divisions. […] Left: VENUS fluorescence, yellow. Right: overlay of VENUS fluorescence with PI cell wall staining (cyan). Asterisk indicates protophloem sieve element cell file. (D) Quantification of protophloem strand presence/absence in root meristems of a Col-0 wild type or clerk mutant upon CLE26 treatment. Statistically significant differences when compared with mock control are indicated by letters ([…], P<0.001; n=18-30). […] (G) Distance between first detectable CVP2 expression and the quiescent center (QC) in Col-0 wild type and clerk mutants, expressed as cell number. […] (H) Distance between first detectable CVP2 expression and the quiescent center (QC) in Col-0 wild type and clerk mutants, expressed as absolute distance. […] (J) Quantification of cell file number in Col-0 wild type or clerk mutants, counted at the level where protoxylem has differentiated. […] Left: VENUS fluorescence, yellow; Right: overlay of VENUS fluorescence with PI cell wall staining (cyan). […]

Arabidopsis root growth [3] = conditions: ref Hazak et al., 2017; cited from earlier work
Source text: The incapacity of clerk loss-of-function second site mutation to suppress the brx phenotype (unlike second site bam3 or clv2-crn loss of function) is also of interest with respect to the role of CLE peptide signaling in the spatiotemporal progression of protophloem sieve element differentiation. Resistance of clerk mutants against root-active CLE peptides as well as CLERK expression in early protophloem reiterate the key role of the protophloem in CLE sensing in the root ([Hazak et al., 2017]). Yet not all CLE peptides have an equally strong effect on root growth, which correlates with their i ...

[4] = tested on: root meristem protophloem; conditions: BAM3 necessary; ref Depuydt et al., 2013; Hazak et al., 2017; Kang and Hardtke, 2016; cited from earlier work
Source text: The endogenous CLAVATA3/EMBRYO SURROUNDING REGION (CLE) peptides of plants are secreted as propeptides and processed to yield bioactive 12-14 amino acid long ligands ([Cock and McCormick, 2001]; [Ito et al., 2006]; [Kondo et al., 2006]). The Arabidopsis thaliana genome contains 32 CLE genes, which encode 27 distinct CLE peptides ([Goad et al., 2016]; [Ito et al., 2006]; [Strabala et al., 2006]). Exogenous application of chemically synthesized CLE peptides at nanomolar concentrations frequently suppresses Arabidopsis root growth in tissue culture ([Depuydt et al., 2013]; [Fiers et al., 2005]; [ ...

BAM3 ectodomain = conditions: ref Hazak et al., 2017; cited from earlier work
Source text: The CLE resistance of clerk mutants could be explained through indirect effects, for example on the expression of bona fide CLE receptors, as proposed for crn ([Hazak et al., 2017]). To evaluate this scenario, we focused our efforts on the only identified CLE receptor in the root protophloem so far, the CLE45 receptor BAM3 ([Hazak et al., 2017]; [Kang and Hardtke, 2016]). Introduction of a BAM3::BAM3-CITRINE transgene into clerk mutants did however not reveal any altered BAM3 expression or localization (Fig. S1D). To also test whether CLERK could serve as a co-receptor for BAM3 instead, we obt ...

| Sequence | Root growth, 10 confirmed CLE26-resistant mutants (Arabidopsis root growth [1]; 100 nM CLE26, vs Col-0 wild type, ANOVA, P<0.001, n=8-21) | Sensitivity of clerk plants carrying CLERK::CLERK-GFP (Arabidopsis root growth [1]; Fig. 1E) | Root growth response, clerk T-DNA insertion mutant (SALK_066568) (Arabidopsis root growth [1]; Fig. 1E, n=28-47) | Response of brx crn double mutants (Arabidopsis root growth [1]; Fig. S4) | Requirement of CLERK for sensing in the root (Arabidopsis root growth [1]; clerk mutants) | Root growth response of clerk mutants (Arabidopsis root growth [1]) | Response of clerk brx and clerk ops double mutants (Arabidopsis root growth [1]; n=2-25) | Response of combinations of clerk with bam3, makr5 or ops^E319K (Arabidopsis root growth [1]; n=2-25) | CLE sensitivity of clerk mutants with transgenic CLERK wild-type copy (Arabidopsis root growth [1]; original and T-DNA clerk mutants, Fig. 1E, n=28-47) | Sensing with SARK or NIK1 expressed under the CLERK promoter (Arabidopsis root growth [1]; several independent transgenic lines, n=21-43) | Protophloem development in clerk mutants [2] | Relative strength as root-active CLE peptide (Arabidopsis root growth [3]) | Effect on protophloem sieve element differentiation [4] | Binding to BAM3 ectodomain (BAM3 ectodomain) |
| --- | --- | --- | --- | --- | --- | --- | --- | --- | --- | --- | --- | --- | --- | --- |
| RKVPRGPDPIHN [CLE26] | substantially resistant; also recorded: statistically significantly different when compared with Col-0 wild type | full sensitivity | strong CLE26 resistance | still CLE26 sensitive | CLERK is required for CLE26 sensing in the root | resistant | both clerk brx and clerk ops were CLE26 sensitive | additive CLE26 resistance | could be recovered | both SARK and NIK1 could replace the CLERK protein to sense CLE26 | maintained protophloem development | – | – | – |
| RRVRRGSDPIHN [CLE45] | – | – | – | – | – | resistant | – | – | – | – | – | strongest root-active CLE peptide | suppression of protophloem sieve element differentiation | high-affinity |
